Several values for one entry are separate records, joined by “and”; a condition that tells them apart may be missing. Equal entries are not always repeated.
Conditions: 303.16 K, Liquid, Vibrating tube method

CCCCCCCCCC [decane]
Conditions	mass density
4941 kPa	726.2 kg/m3
4955 kPa	726.3 kg/m3
4969 kPa	726.3 kg/m3
4979 kPa	726.4 kg/m3
4994 kPa	726.4 kg/m3
5007 kPa	726.3 kg/m3
5019 kPa	726.4 kg/m3
5029 kPa	726.4 kg/m3
5041 kPa	726.3 kg/m3
5052 kPa	726.3 kg/m3
5065 kPa	726.4 kg/m3
5075 kPa	726.5 kg/m3
5091 kPa	726.4 kg/m3
5107 kPa	726.5 kg/m3
5119 kPa	726.6 kg/m3
5129 kPa	726.5 kg/m3
5140 kPa	726.5 kg/m3
5153 kPa	726.4 kg/m3
5167 kPa	726.5 kg/m3
5177 kPa	726.4 kg/m3
5193 kPa	726.4 kg/m3
5209 kPa	726.4 kg/m3
5220 kPa	726.6 kg/m3
5236 kPa	726.5 kg/m3
5251 kPa	726.5 kg/m3
5261 kPa	726.5 kg/m3
5276 kPa	726.5 kg/m3
5292 kPa	726.5 kg/m3
5309 kPa	726.5 kg/m3
5318 kPa	726.4 kg/m3
5331 kPa	726.6 kg/m3
5342 kPa	726.7 kg/m3
5359 kPa	726.6 kg/m3
5374 kPa	726.6 kg/m3
5385 kPa	726.6 kg/m3
5399 kPa	726.5 kg/m3
5412 kPa	726.5 kg/m3
5427 kPa	726.7 kg/m3
5443 kPa	726.6 kg/m3
5459 kPa	726.7 kg/m3
5473 kPa	726.7 kg/m3
5488 kPa	726.8 kg/m3
5501 kPa	726.6 kg/m3
5514 kPa	726.8 kg/m3
5532 kPa	726.8 kg/m3
5548 kPa	726.7 kg/m3
5562 kPa	726.8 kg/m3
5576 kPa	726.8 kg/m3
5593 kPa	726.8 kg/m3
5607 kPa	726.8 kg/m3
5626 kPa	726.8 kg/m3
5642 kPa	726.8 kg/m3
5655 kPa	726.8 kg/m3
5674 kPa	726.9 kg/m3
5690 kPa	726.9 kg/m3
5705 kPa	726.8 kg/m3
5723 kPa	727 kg/m3
5738 kPa	726.9 kg/m3
5751 kPa	726.9 kg/m3
5770 kPa	727 kg/m3
5791 kPa	727 kg/m3
5803 kPa	726.9 kg/m3
5819 kPa	727 kg/m3
5834 kPa	726.9 kg/m3
5851 kPa	726.9 kg/m3
5864 kPa	727 kg/m3
5873 kPa	727 kg/m3
5878 kPa	727 kg/m3
5884 kPa	727 kg/m3
5887 kPa	727.1 kg/m3
5896 kPa	727.1 kg/m3
5908 kPa	727.1 kg/m3
5926 kPa	727.1 kg/m3
5940 kPa	727 kg/m3
5954 kPa	727 kg/m3
5971 kPa	727.1 kg/m3
5986 kPa	727.1 kg/m3
6008 kPa	727 kg/m3
6029 kPa	727.1 kg/m3
6044 kPa	727.2 kg/m3
6063 kPa	727 kg/m3
6080 kPa	727.3 kg/m3
6100 kPa	727.2 kg/m3
6118 kPa	727.1 kg/m3
6139 kPa	727.3 kg/m3
6161 kPa	727.3 kg/m3
6178 kPa	727.2 kg/m3
6196 kPa	727.2 kg/m3
6201 kPa	727 kg/m3
6204 kPa	727.3 kg/m3
6205 kPa	727.3 kg/m3
6209 kPa	727.3 kg/m3
6210 kPa	727.2 kg/m3
6211 kPa	727.3 kg/m3
6212 kPa	727.3 kg/m3
6213 kPa	727.3 kg/m3
6214 kPa	727.2 kg/m3
6215 kPa	727.3 kg/m3 and 727.2 kg/m3
6216 kPa	727.2 kg/m3 and 727.3 kg/m3 and 727.4 kg/m3
6222 kPa	727.3 kg/m3
6239 kPa	727.2 kg/m3
6255 kPa	727.3 kg/m3
6262 kPa	727.4 kg/m3
6278 kPa	727.2 kg/m3
6282 kPa	727.3 kg/m3
6283 kPa	727.3 kg/m3
6306 kPa	727.4 kg/m3
6327 kPa	727.3 kg/m3
6345 kPa	727.4 kg/m3
6368 kPa	727.4 kg/m3
6383 kPa	727.4 kg/m3
6399 kPa	727.5 kg/m3
6414 kPa	727.4 kg/m3
6427 kPa	727.5 kg/m3
6451 kPa	727.5 kg/m3
6470 kPa	727.5 kg/m3
6485 kPa	727.6 kg/m3
6507 kPa	727.4 kg/m3
6524 kPa	727.5 kg/m3
6545 kPa	727.6 kg/m3
6560 kPa	727.5 kg/m3
6580 kPa	727.5 kg/m3
6598 kPa	727.6 kg/m3
6621 kPa	727.7 kg/m3
6642 kPa	727.6 kg/m3
6661 kPa	727.7 kg/m3
6684 kPa	727.7 kg/m3
6705 kPa	727.6 kg/m3
6721 kPa	727.6 kg/m3
6735 kPa	727.7 kg/m3
6759 kPa	727.7 kg/m3
6783 kPa	727.8 kg/m3
6799 kPa	727.7 kg/m3
6818 kPa	727.8 kg/m3
6841 kPa	727.7 kg/m3
6864 kPa	727.8 kg/m3
6881 kPa	727.9 kg/m3
